Measurements taken from EP0949243A1, “OPTICALLY ACTIVE METHOXYIMINOACETAMIDE DERIVATIVES, PROCESS FOR THE PREPARATION OF THEM, INTERMEDIATES THEREFOR, AND PESTICIDES CONTAINING THEM AS THE ACTIVE INGREDIENT” (MITSUBISHI CHEMICAL CORPORATION, priority 1996, dated 1998).
Like-named read-outs stand apart in the source and are kept apart here.

How the values were obtained:
CD rats (female) = assay: Oral acute toxicity test using rats (Test Example 3); conditions: for LC50 value: CD rats (female), single oral administration, suspended in tragacanth gum aqueous solution
Experimental: Each of the compound No. 2 and its racemate No. 2r was suspended in tragacanth gum aqueous solution and applied to CD rats (female) by single oral administration in a dosage of 300, 600, 1,200, 2,500 or 5,000 mg/kg to obtain its LC50 value.

[1] = system: wheat powdery mildew fungus (Erysiphe graminis); assay: Preventive activity on wheat powdery mildew (Test Example 1); format: in vivo; conditions: foliar application on wheat, wettable powder
[2] = system: wheat brown rust fungus (Puccinia recondita); assay: Preventive activity on wheat brown rust (Test Example 2); format: in vivo; conditions: 10 ppm, foliar application on wheat, wettable powder
[3] = system: wheat brown rust fungus (Puccinia recondita); assay: Effect of combined application for controlling wheat brown rust (Test Example 6); format: in vivo; conditions: single chemical
[4] = system: wheat powdery mildew fungus (Erysiphe graminis f. sp. tritici); assay: Effect of combined application for controlling wheat powdery mildew (Test Example 5); format: in vivo; conditions: single chemical
[5] = system: cucumber gray mold fungus (Botrytis cinerea); assay: Effect of combined application for controlling cucumber gray mold (Test Example 8); format: in vivo; conditions: single chemical, from diameter of lesion
[6] = system: tomato late blight fungus (Phytophthora infestans); format: in vivo; conditions: single chemical

CNC(=O)C(=NOC)c1ccccc1C=NOC(C)c1cccc(C(F)(F)F)c1 (racemic) [2r, N-methyl-2-[2-{1-(3-trifluoromethylphenyl)ethoxyiminomethyl}phenyl]-2-methoxyiminoacetamide]
LC50 value (CD rats (female)): 1,784 mg/kg
mortality (CD rats (female); single oral dosage of 300 mg/kg): no mortality
cases died (CD rats (female); single oral dosage of 600 mg/kg): 1/5
cases died (CD rats (female); single oral dosage of 1,200 mg/kg): 1/5
cases died (CD rats (female); single oral dosage of 2,500 mg/kg): 4/5
cases died (CD rats (female); single oral dosage of 5,000 mg/kg): 4/5
Preventive value (%) ([1]; 2.0 ppm): 64%
Preventive value (%) ([1]; 4.0 ppm): 96%
Preventive value [2]: 32

CC1(C)CCC(Cc2ccc(Cl)cc2)C1(O)Cn1cncn1 (racemic) [Known compound a, (1RS,5RS;1RS,5SR)-5-(4-chlorobenzyl)-2,2-dimethyl-1-(1H-1,2,4-triazol-1-ylmethyl)cyclopentanol]
Preventive value (%) ([3]; 0.2 ppm): 25%
Preventive value (%) ([3]; 1 ppm): 81%
Preventive value (%) ([4]; 0.2 ppm): 35%
Preventive value (%) ([4]; 1 ppm): 80%

CC(C)(C)C(O)(CCc1ccc(Cl)cc1)Cn1cncn1 (racemic) [Known compound b, (RS)-1-p-chlorophenyl-4,4-dimethyl-3-(1H-1,2,4-triazol-1-ylmethyl)pentan-3-ol]
Preventive value (%) ([3]; 0.2 ppm): 22%
Preventive value (%) ([3]; 1 ppm): 75%
Preventive value (%) ([4]; 0.2 ppm): 23%
Preventive value (%) ([4]; 1 ppm): 65%

CC(Cc1ccc(C(C)(C)C)cc1)CN1C[C@@H](C)O[C@@H](C)C1 (mixture of isomers) [Known compound c, (±)-cis-4-[3-(4-tert-butylphenyl)-2-methylpropyl]-2,6-dimethylmorpholine]
Preventive value (%) ([3]; 2.4 ppm): 0%
Preventive value (%) ([3]; 12 ppm): 0%
Preventive value (%) ([4]; 2.4 ppm): 18%
Preventive value (%) ([4]; 12 ppm): 50%

CNC(=O)C(=NOC)c1ccccc1C=NO[C@H](C)c1cccc(C(F)(F)F)c1 (single isomer, unassigned) [compound 1]
Preventive value (%) ([1]; 2.0 ppm): 6%
Preventive value (%) ([1]; 4.0 ppm): 51%
Preventive value [2]: 0

CNC(=O)C(=NOC)c1ccccc1C=NO[C@@H](C)c1cccc(C(F)(F)F)c1 (single isomer, unassigned) [compound 2]
LC50 value (CD rats (female)): ≥ 5,000 mg/kg
Preventive value (%) ([1]; 2.0 ppm): 97%
Preventive value (%) ([1]; 4.0 ppm): 100%
Preventive value (%) ([5]; 0.4 ppm): 13%
Preventive value (%) ([5]; 2 ppm): 53%
Preventive value (%) ([5]; 10 ppm): 94%
Preventive value (%) ([6]; 0.4 ppm): 23%
Preventive value (%) ([6]; 2 ppm): 73%
Preventive value (%) ([6]; 10 ppm): 95%
Preventive value (%) ([3]; 0.2 ppm): 2%
Preventive value (%) ([3]; 1 ppm): 48%
Preventive value [2]: 99
Preventive value (%) ([4]; 0.2 ppm): 25%
Preventive value (%) ([4]; 1 ppm): 87%

CCCN(CCOc1c(Cl)cc(Cl)cc1Cl)C(=O)n1ccnc1 [Known compound d, N-propyl-N-[2-(2,4,6-trichlorophenoxy)ethyl]imidazole-1-carboxamide]
Preventive value (%) ([6]; 0.2 ppm): 62%
Preventive value (%) ([6]; 1 ppm): 79%
Preventive value (%) ([6]; 5 ppm): 95%
Preventive value (%) ([3]; 2.4 ppm): 0%
Preventive value (%) ([3]; 12 ppm): 19%

O=[N+]([O-])c1cc(C(F)(F)F)c(Cl)c([N+](=O)[O-])c1Nc1ncc(C(F)(F)F)cc1Cl [Known compound f]
Preventive value (%) ([5]; 0.2 ppm): 52%
Preventive value (%) ([5]; 1 ppm): 68%
Preventive value (%) ([5]; 5 ppm): 98%
